The record followed here is patent US5849494A, “Methods for sensitive detection of reverse transcriptase” (priority 1996, dated 1998).

One test has as its target RT in group M sera (HIV-1 M:B_HXB2R, UniProt P04585). Particulars: 10 group M-infected persons; unprocessed 2 μl serum samples. On the procedure:
(§1) Plasma samples from 55 HIV-1 infected persons, ten seroconversion panels and 100 uninfected controls were studied. Two micoliter volumes of unprocessed plasma were tested in duplicate by the Amp-RT protocol as described above. The viral load was determined from a standard curve generated by known numbers of recombinant HIV-1 RT molecules and was expressed as equivalents of recombinant RT (rRT) molecules/ml. For comparison, RNA virus loads were also determined by the NASBA commercial assay (Organon).
(§2) To measure the sensitivity of group M and group O viruses to nevirapine (Boehringer Mannheim), the Amp-RT assay as described herein was used to measure the enzymatic activity of RT of these viruses in the presence or absence of the drug. Ten microliters of culture supernatants were added to 40 μl of RT buffer containing 10 ng of RNA template, 10 units of Rnasin (Promega, Wis.), 0.06% NP-40, 100 ng of the antisense primer EMCR2 (SEQ ID NO:2), 0.8 mM EGTA, 2 mM dithiothreitol, 50 mM Tris-HCl, 10 mM MgCl2 and 200 μM of each dNTP with or without 100 μM of nevirapine. […] For quantitative detection, blots were exposed for 3-6 hours and their radioactivities were read and measured by a Phosphor Imager (Model # 400E, Molecular Dynamics, Inc., CA). […]
(§3) Applicability to serum screening was evaluated in 10 group O-infected and 10 group M-infected persons.

The target of another test is RT of group M viruses (HIV-1 M:B_HXB2R, UniProt P04585). Particulars: nevirapine at 100 μM; 21 group M reference isolates of A through F subtypes; culture supernatants. On the procedure: (§4) To measure the sensitivity of group M and group O viruses to nevirapine (Boehringer Mannheim), the Amp-RT assay as described herein was used to measure the enzymatic activity of RT of these viruses in the presence or absence of the drug. Ten microliters of culture supernatants were added to 40 μl of RT buffer containing 10 ng of RNA template, 10 units of Rnasin (Promega, Wis.), 0.06% NP-40, 100 ng of the antisense primer EMCR2 (SEQ ID NO:2), 0.8 mM EGTA, 2 mM dithiothreitol, 50 mM Tris-HCl, 10 mM MgCl2 and 200 μM of each dNTP with or without 100 μM of nevirapine. The reaction was incubated at 37° C. for one hour and heated at 95° C. for ten minutes. The products of the RT reaction were PCR amplified for 35 cycles at 95° C. for one minute, 55° C. for one minute and 72° C. for one minute after the addition of 50 μl of PCR buffer containing 2.5 units of Taq polymerase, 100 ng of sense primer EMCF1': 5'[…]3' (SEQ ID NO:10). Twenty microliters of the reaction product was electrophoresed in 1.8% agarose gels and Southern blot hybridized to ^32 P-end labeled internal probe EMCP1 (SEQ ID NO:3). For qualitative detection, blots were exposed on autoradiographic film for 12-16 hours. For quantitative detection, blots were exposed for 3-6 hours and their radioactivities were read and measured by a Phosphor Imager (Model # 400E, Molecular Dynamics, Inc., CA). […]

In test [1] the target is T1, RT of group O reference isolate MVP5180 (Human immunodeficiency virus type 1 group O, UniProt Q79666).
T1 construct: measure the enzymatic activity of RT of these viruses
Nature of the test: Amp-RT assay of RT activity of HIV-1 group O isolate with or without nevirapine. As to conditions: nevirapine at 100 μM, culture supernatant. The test is classed as biochemical. On the procedure:
as §4

The next test has as its target T2, RT in group O sera (HIV-1 O_MVP5180, UniProt Q79666).
T2 construct: Amp-RT with EMCV RNA template
Nature of the test: Direct Amp-RT assay of sera from group O-infected persons with or without nevirapine. It counts as biochemical, HIV-1 group O. As to conditions: 10 group O-infected persons; unprocessed 2 μl serum samples. The protocol:
as §1, §2, §3

Take `Cc1ccnc2c1NC(=O)c1cccnc1N2C1CC1` [nevirapine]: on RT in group M sera, the “Amp-RT result of group M sera with nevirapine” value is given as “positive only in the absence of nevirapine”. At RT of group M viruses, the “Effect on Amp-RT activity of group M reference isolates” value is recorded as “inhibit”. In test [1], the “Sensitivity of group O reference isolate to nevirapine (Amp-RT)” value is “resistant”. Further, the “Amp-RT result of group O sera with nevirapine” value on RT in group O sera was “Amp-RT positive in the presence and absence of nevirapine”.
